The results in this text go back to EP3722296B1, “DIHYDRONAPHTHYRIDINES AND RELATED COMPOUNDS USEFUL AS KINASE INHIBITORS FOR THE TREATMENT OF PROLIFERATIVE DISEASES” (Deciphera Pharmaceuticals, LLC, priority 2012, dated 2013).

Experiment [1] addresses T1, c-KIT D816H kinase (Homo sapiens, UniProt P10721, D816H).
T1 construct: The construct contains residues T544-V976 of cKit; GST (N); TEV cleavage site (internal); purchased deCODE Biostructures
Briefly: c-KIT D816H Kinase Assay. It is filed as biochemical. The settings on record: enzymatic assay, ATP 200 µM. In a few lines:
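Coupled spectrophotometric assay following NADH oxidation as absorbance decrease at 340 nm, monitored continuously for 6 hours at 30 °C after adding serially diluted compound. Enzyme: mutant cKit construct with N-terminal tag, GST fusion and TEV cleavage site.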

The target of experiment [2] is T2, c-KIT D816V kinase (Homo sapiens, UniProt P10721, D816V).
T2 construct: residues T544-V976 with N-terminal GST fusion; purchased deCODE Biostructures
T2 sequence (P10721 544-976 D816V): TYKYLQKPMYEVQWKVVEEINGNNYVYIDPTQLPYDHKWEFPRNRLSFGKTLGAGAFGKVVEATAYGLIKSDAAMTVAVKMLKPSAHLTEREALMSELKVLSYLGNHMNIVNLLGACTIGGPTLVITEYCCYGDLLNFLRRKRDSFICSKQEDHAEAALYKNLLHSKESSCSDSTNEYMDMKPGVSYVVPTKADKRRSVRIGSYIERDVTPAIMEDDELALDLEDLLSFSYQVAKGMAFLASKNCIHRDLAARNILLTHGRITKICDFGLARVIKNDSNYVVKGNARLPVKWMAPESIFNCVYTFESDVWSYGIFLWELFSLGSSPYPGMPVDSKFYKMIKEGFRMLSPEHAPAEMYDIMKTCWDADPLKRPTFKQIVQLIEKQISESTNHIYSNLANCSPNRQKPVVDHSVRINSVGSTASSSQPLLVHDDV
The experiment in a line: c-KIT D816V kinase Assay. It is filed as biochemical. The conditions noted are these: enzymatic assay, ATP 200 uM. In a few lines:
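Coupled assay in which NADH oxidation was tracked as decreasing absorbance at 340 nm, continuously for 5 hours at 30 °C after adding serially diluted compound. Enzyme: cKit residues T544-V976 with N-terminal tag, GST fusion and TEV cleavage site.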

In experiment [3] the target is T3, c-KIT T670I kinase (Homo sapiens, UniProt P10721, T670I).
T3 construct: The construct contains residues T544-V976 of cKit; GST (N); TEV cleavage site (internal); purchased deCODE Biostructures
T3 sequence (P10721 544-976 T670I): as the sequence (P10721 544-976 D816V) above, with T127I, V273D counted along it
Briefly: c-KIT T670I kinase assay. It is filed as biochemical. The conditions noted are these: enzymatic assay. A digest of the protocol:
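Coupled spectrophotometric assay following NADH oxidation as absorbance decrease at 340 nm, monitored continuously for 5 h at 30 °C after adding serially diluted compound. Enzyme is a cKit construct with N-terminal tag, GST fusion and TEV site, carrying the T670I mutation.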

Experiment [4] concerns Phospho-KIT (Tyr719). Briefly: GIST48 KIT Western Blot. The settings on record: GIST48 cells, 4 hours, serum-free medium; read-out: pKIT suppression by western blot analysi GIST48. It counts as cell-based. A digest of the protocol: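 Phospho-KIT (Tyr719) was immunoblotted on PVDF and imaged in fluorescence mode after ECL Plus, with stripping and reprobing for total KIT. IC50 values were derived from the blot signals.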

Experiment [5] has as its system GIST430 cells. Briefly: GIST 430 Cell Proliferation Assay. It counts as cell-based. The settings on record: Homo sapiens, 120 h, 115 hours + 5 hours resazurin. How it is done:
GIST48, GIST430, and GIST882 cells were obtained from J. Fletcher (Brigham and Women's Hospital, Boston, MA). GIST T1 cells were obtained from B. Rubin (Cleveland Clinic, Cleveland, OH) and Professor Takahiro Taguchi (Kochi Medical School, Nankoku, Kochi, Japan). Briefly, GIST48 and GIST 882 cells were grown in RPMI 1640 medium supplemented with 15% characterized fetal bovine serum (Invitrogen, Carlsbad, CA), 1 unit/mL penicillin G, 1 µg/ml streptomycin, and 0.29 mg/mL L-glutamine at 37 °C, 5% CO2, and 95% humidity. GIST430 cells were grown in Ham's F10 medium supplemented with 15% characterized fetal bovine serum (Invitrogen, Carlsbad, CA), 30 mg/L bovine pituitary extract (BD Biosciences, San Jose, CA), 0.5% Mito+ serum extender (BD Biosciences, San Jose, CA), 1 unit/mL penicillin G, 1 µg/ml streptomycin, and 0.29 mg/mL L-glutamine at 37 °C, 5%CO2, 95% humidity. GIST T1 cells were grown in DMEM medium supplemented with 10% characterized fetal bovine serum (Invitrogen, Carlsbad, CA), 1 unit/mL penicillin G, 1 µg/ml streptomycin, and 0.29 mg/mL L-glutamine at 37 °C, 5% CO2, and 95% humidity.
A serial dilution of test compound was dispensed into a 384-well black clear bottom plate (Corning, Corning, NY). Two thousand five-hundred cells were added per well in 50 µL complete growth medium. Plates were incubated for 115 hours at 37°C, 5% CO2, 95% humidity. At the end of the incubation period 10 µL of a 440 µM solution of resazurin (Sigma, St. Louis, MO) in PBS was added to each well and incubated for an additional 5 hours at 37°C, 5% CO2, 95% humidity. Plates were read on a Synergy2 reader (Biotek, Winooski, VT) using an excitation of 540 nm and an emission of 600 nm.
Background: Alamar Blue is a resazurin reagent that responds to reducing activity.

The test system of experiment [6] is GIST T1 cells. Briefly: GIST T1 Cell Proliferation Assay. It counts as cell-based. The settings on record: Homo sapiens, GISTT1, 72 h, 68 hours + 4 hours resazurin.
Experiment [7] addresses T4, c-KIT kinase (Homo sapiens, UniProt P10721). Briefly: c-KIT kinase Assay. It counts as biochemical. More on the design: cKIT residues T544-V976; GST (N); TEV cleavage site (internal); purchased deCODE Biostructures. The conditions noted are these: enzymatic assay, ATP 200 µM; read-out: KIT (wt) IC50. A digest of the protocol:
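Activity of wild-type human c-KIT kinase was followed as NADH oxidation, read as falling absorbance at 340 nm on a Synergy 2 plate reader (BioTeK) for 2 hours at 30 °C. Rates from the 0 to 1 h window were compared with an uninhibited control to give percent inhibition. IC50 values were fitted in GraphPad Prism across a range of inhibitor concentrations.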
Target sequence in this assay (P10721 544-976): as the sequence (P10721 544-976 D816V) above, with V273D counted along it

Experiment [8] addresses T5, c-KIT V654A kinase (Homo sapiens, UniProt P10721, V654A).
T5 construct: residues T544-V976 with N-terminal GST fusion; purchased deCODE Biostructures
Briefly: c-KIT V654A Kinase Assay. It is filed as biochemical. The conditions noted are these: enzymatic assay, ATP 200 µM. A digest of the protocol:
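Construct: cKIT residues T544–V976 with N-terminal tag, GST fusion and TEV site. Reaction started by adding serially diluted compound to the enzyme mixture; NADH oxidation, coupled to kinase turnover, followed as the decrease in A340 for 6 h at 30 °C.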

The target in experiment [9] is T6, c-KIT VVDV kinase (Homo sapiens, UniProt P10721, D816V/DEL559-560).
T6 construct: This construct contains residues T544-V976 of cKit; GST (N); TEV cleavage site (internal); purchased deCODE Biostructures
T6 sequence (P10721 with tags, fused parts or gaps DEL559-560/D816V): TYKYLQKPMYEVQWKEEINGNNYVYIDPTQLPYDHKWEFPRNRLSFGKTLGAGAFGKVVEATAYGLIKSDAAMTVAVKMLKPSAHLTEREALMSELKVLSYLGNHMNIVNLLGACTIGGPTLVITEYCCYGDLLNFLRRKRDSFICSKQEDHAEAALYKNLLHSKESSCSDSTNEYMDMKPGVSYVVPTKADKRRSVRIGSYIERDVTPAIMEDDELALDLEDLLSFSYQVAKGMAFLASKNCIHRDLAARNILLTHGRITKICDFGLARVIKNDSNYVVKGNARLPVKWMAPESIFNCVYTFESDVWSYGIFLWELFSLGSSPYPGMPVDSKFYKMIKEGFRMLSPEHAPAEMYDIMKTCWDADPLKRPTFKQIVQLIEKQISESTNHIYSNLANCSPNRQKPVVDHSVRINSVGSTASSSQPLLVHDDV
The experiment in a line: cKIT-VVDV kinase Assay. It is filed as biochemical. The conditions noted are these: enzymatic assay; V559+V560 deletions and D816V mutation. How it is done: In this assay, the oxidation of NADH (measured by decrease in absorbance at 340 nm) was continuously monitored spectrophotometrically. […] The inhibition reaction was started by mixing serial diluted test compound with the above reaction mixture. The absorption at 340 nm was monitored continuously for 5 hours at 30 °C on Synergy 2 plate reader (BioTech). […] The protein construct was prepared by deCODE Biostructures using procedures known in the art. […] This construct is identical to Seq ID no.

In experiment [10] the target is T4, c-KIT kinase. The experiment in a line: Kinase inhibitory profile of marketed inhibitors, c-KIT kinase. It is filed as biochemical.
Target sequence in this assay (P10721 26-976): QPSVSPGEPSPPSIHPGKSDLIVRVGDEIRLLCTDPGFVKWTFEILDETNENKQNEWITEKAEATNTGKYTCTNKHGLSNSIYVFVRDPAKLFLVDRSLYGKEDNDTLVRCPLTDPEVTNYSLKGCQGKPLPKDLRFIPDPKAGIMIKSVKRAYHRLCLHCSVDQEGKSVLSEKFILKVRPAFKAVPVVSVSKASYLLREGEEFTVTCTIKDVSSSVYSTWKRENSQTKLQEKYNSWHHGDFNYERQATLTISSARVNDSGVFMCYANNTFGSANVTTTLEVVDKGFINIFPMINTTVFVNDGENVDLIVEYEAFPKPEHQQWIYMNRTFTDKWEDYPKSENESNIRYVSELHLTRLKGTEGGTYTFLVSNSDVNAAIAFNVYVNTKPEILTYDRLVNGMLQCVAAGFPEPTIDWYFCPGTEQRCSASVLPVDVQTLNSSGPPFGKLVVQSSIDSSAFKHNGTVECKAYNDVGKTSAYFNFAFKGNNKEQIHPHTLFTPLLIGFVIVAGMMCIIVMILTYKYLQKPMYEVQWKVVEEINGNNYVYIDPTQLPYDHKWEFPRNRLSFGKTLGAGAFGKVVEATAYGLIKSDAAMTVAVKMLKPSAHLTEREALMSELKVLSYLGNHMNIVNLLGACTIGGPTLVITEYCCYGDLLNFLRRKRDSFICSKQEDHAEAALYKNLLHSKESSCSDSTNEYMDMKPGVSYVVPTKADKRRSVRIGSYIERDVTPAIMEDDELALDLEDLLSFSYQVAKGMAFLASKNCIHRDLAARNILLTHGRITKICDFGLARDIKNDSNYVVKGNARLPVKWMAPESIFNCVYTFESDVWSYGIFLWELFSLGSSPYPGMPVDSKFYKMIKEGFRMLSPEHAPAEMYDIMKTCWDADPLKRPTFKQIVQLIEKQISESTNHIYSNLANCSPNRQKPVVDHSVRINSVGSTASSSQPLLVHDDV

T1 sequence (P10721 544-976 D816H): as the sequence (P10721 544-976 D816V) above, with V273H counted along it
T5 sequence (P10721 544-976 V654A): as the sequence (P10721 544-976 D816V) above, with V111A, V273D counted along it

Take `CCn1c(=O)c(-c2cc(NC(=O)Nc3ccccc3F)c(F)cc2C)cc2cnc(NC)cc21` [Example 38, 1-(5-(1-ethyl-7-(methylamino)-2-oxo-1,2-dihydro-1,6-naphthyridin-3-yl)-2-fluoro-4-methylphenyl)-3-(2-fluorophenyl)urea]: the IC50 in [1] was 10 to 100 nM; in experiment [2], 10 to 100 nM; in experiment [3] it was 100 to 1000 nM; in experiment [4] it was over 1000 nM; in [5], 10 to 100 nM; in experiment [6], under 10 nM. Further, the IC50 in experiment [7] is under 10 nM.
On to `CCn1c(=O)c(-c2cc(NC(=O)Nc3ccccc3)c(F)cc2Cl)cc2cnc(NCCCOC)cc21` [Example 39, 1-(4-chloro-5-(1-ethyl-7-(3-methoxypropylamino)-2-oxo-1,2-dihydro-1,6-naphthyridin-3-yl)-2-fluorophenyl)-3-phenylurea], for which the IC50 in [2] was 10 to 100 nM; in [3] it was 10 to 100 nM; in experiment [5], 10 to 100 nM; in [7], under 10 nM.
In the case of `CNc1cc2c(cn1)cc(-c1cc(NC(=O)Nc3cccc(F)c3)c(F)cc1F)c(=O)n2C(C)C` [Example 40, 1-(2,4-difluoro-5-(1-isopropyl-7-(methylamino)-2-oxo-1,2-dihydro-1,6-naphthyridin-3-yl)phenyl)-3-(3-fluorophenyl)urea], the IC50 in experiment [8] was 10 to 100 nM; in experiment [1], 10 to 100 nM; in experiment [2], 10 to 100 nM; in experiment [9] it was 100 to 1000 nM; in experiment [3] it was 100 to 1000 nM; in [5], 100 to 1000 nM. The IC50 in experiment [6] and in experiment [7] was under 10 nM each time.
`CCCS(=O)(=O)Nc1ccc(F)c(C(=O)c2c[nH]c3ncc(-c4ccc(Cl)cc4)cc23)c1F` [Vemurafenib®, vemurafenib]: the IC50 in experiment [10] was found to be 1600 nM.
